Experimental data taken from US6399664B2, “Method of treating cancer, specifically leukemia, with ozone” (priority 1996, dated 2002).

Legend:
[1] = tested on: chronic myeloid leukemia (CML); test: Conventional chemotherapy with Hydroxyurea of CML canine #198675
[2] = tested on: chronic myeloid leukemia (CML); test: Ozone/ROI therapy (iv injection, adjunct minor autohemotherapy) of CML canine #198675; assay type: in vivo
Description: The attending veterinarian discussed euthanasia and the ozone or ROI therapy described in this invention with the owner under strict confidence. The owner and all attending veterinarians signed consent and confidentiality forms and the ozone or ROI therapy began on Sep. 23, 1997 and continued for 16 weeks. Prior to each weekly ozone or ROI treatment the patient's complete blood counts were measured using a Coulter Counter Hematology Analyzer (Coulter Electronics Canada Co.). The leukocyte differential counts were determined manually by the pathologist and recorded in FIG. 14. Ozone and ROI's were generated from a high voltage corona discharge electrical ozone generator using medical grade oxygen as shown in FIG. 13. Ozone/oxygen gas (30 to 60 ml) was injected intra-venously (iv) through a sterile catheter needle (Abbocath-T, 22 g×11⁄4 in.; Abbott Ireland) inserted in the leg vein of the mammal (canine #198675) with a sterile extension set (79 cm, […], Abbott Ireland) attached to the syringe containing the ozone ROI gas mixture. The ozone/oxygen gas mixture was slowly injected over a 10 to 20 minute period to allow maximum gas absorption. The secondary or adjunct to the preferred route of administration was minor autohemotherapy (minor AHT) where heparinized whole blood (7 ml each treatment) was gently mixed in a disposable syringe or devise with increasing doses of ozone to a maximum of 25 ml at 34 to 42 μg/ml (dose is species specific). The blood gas mixture was allowed to equilibrate at room temperature for 1 to 5 minutes with intermittent mixing. The excess gas was evacuated prior to intramuscular (im) or subcutaneous (sc) injection of the ozonated blood at several locations. Patients were accessed prior to, during and post treatment by blood tests, clinical response, and biopsy when appropriate.

[3] = tested on: K562, Human CML cell line; test: K562 viability by Trypan blue exclusion after ozone micro-bubbling; assay type: cell-based; conditions: ozone 5, 10, 15, 25 μg/ml
Description: (§1) Ozone and ROI's were generated using medical grade oxygen from a high voltage corona discharge electrical ozone generator (Carpendale and Freeberg, 1991; Viebahn, 1994; FIG. 13). Liquid RPMI complete media suspension of K562 cell cultures or normal human whole blood (10 ml each treatment) was processed through a micro-bubbling device at several ozone concentrations (5, 10, 15, and 25 μg/ml). In addition, a 100% oxygen treated and non-processed control samples were also examined. After processing, complete blood counts were measured on all whole blood samples. Peripheral blood mononuclear cells (PBMC) were isolated using a standard density gradient of 1.077 g/ml and washed with Iscove's medium. Viability and cell counts were determined manually using a hemocytrometer and a 4% solution of Trypan blue. Cell concentrations were adjusted to 2.0×10^6 cells/ml. Cells were mixed in a 1:10 (v/v) ratio with methylcellulose medium with recombinant growth factors (#HCC-4434, StemCell Technologies Inc.) and plated to contain 2×10^5 cells per plate in duplicate for normal PBMCs and 2×10^4 for K562 cells. Plates were incubated at 37° C. in a CO2/O2 incubator. Colonies were scored on day 5, 8, 10 and day 14 according to the scoring criteria by StemCell Technologies. […]

K562 leukemic cell line = test: K562 colony formation and differentiation in methylcellulose medium; assay type: cell-based, human
Description: Ozone and ROI's were generated using medical grade oxygen from a high voltage corona discharge electrical ozone generator (Carpendale and Freeberg, 1991; Viebahn, 1994; FIG. 13). Liquid RPMI complete media suspension of K562 cell cultures or normal human whole blood (10 ml each treatment) was processed through a micro-bubbling device at several ozone concentrations (5, 10, 15, and 25 μg/ml). In addition, a 100% oxygen treated and non-processed control samples were also examined. After processing, complete blood counts were measured on all whole blood samples. Peripheral blood mononuclear cells (PBMC) were isolated using a standard density gradient of 1.077 g/ml and washed with Iscove's medium. Viability and cell counts were determined manually using a hemocytrometer and a 4% solution of Trypan blue. Cell concentrations were adjusted to 2.0×10^6 cells/ml. Cells were mixed in a 1:10 (v/v) ratio with methylcellulose medium with recombinant growth factors (#HCC-4434, StemCell Technologies Inc.) and plated to contain 2×10^5 cells per plate in duplicate for normal PBMCs and 2×10^4 for K562 cells. Plates were incubated at 37° C. in a CO2/O2 incubator. Colonies were scored on day 5, 8, 10 and day 14 according to the scoring criteria by StemCell Technologies. The data results for cell viability, total colonies (proliferation) and individual colony cell types (differentiation) are presented in FIGS. 1-8.

[4] = tested on: normal human peripheral blood mononuclear cells (PBMC); test: Normal human PBMC colony formation in methylcellulose medium; assay type: cell-based; conditions: ozone 5, 10, 15, 25 μg/ml
Description: as §1

[5] = tested on: normal human peripheral blood leukocytes; test: Effects of ozone on normal human leukocytes run in parallel; assay type: cell-based; conditions: at the concentrations used
Description: as §1

[6] = tested on: cultured human cancerous cell lines derived from lung, breast and uterine solid tumours; conditions: little damage to normal cell growth; cited from earlier work
[7] = tested on: cytokine levels such as IL-1, IL-2 and IFN-γ; conditions: in humans; cited from earlier work
[8] = 500 mg twice daily for approximately one year
[9] = 16 μg/ml ozone injected, up to 197 ug total, in vivo concentration less than 0.25 μg/ml
[10] = 28 to 42 μg/ml ozone injected, up to 2100 ug total, in vivo concentration 0.5 to 1.5 μg/ml

NC(=O)NO [Hydroxyurea]
RBC counts [1, 8]: increased with time
WBC levels relative to normal canine range of 6.1 to 17.4×10^9 cells per liter [1, 8]: never returned to the normal canine range
side effects (clinical presentation) [1, 8]: depression, lethargy, severe to mild diarrhea, anorexia, vomiting, weight loss, occasionally vaginal bleeding, abdominal pain and splenomegaly
total WBC counts [1, 8]: decrease
time of entering blast crisis after cessation of conventional chemotherapy ([1]; after one year of chemotherapy): 1.5 months

O=[O+][O-] [ozone]
effect on canine hematopoietic system [2, 9]: significant activation
production of leukemic cells [2, 9]: significant increase
progression of CML (total WBC and RBC counts) ([2]; 16 week treatment): reversed the progression of CML
effect on canine hematopoietic system [2, 10]: significant inhibition
production of leukemic cells [2, 10]: significant reduction
patient's quality of life ([2]; CML canine #198675, weekly ozone/ROI treatment, 16 weeks): increase
diarrhea ([2]; CML canine #198675, diarrhea not related to CML): slight improvement in the diarrhea, although only temporary
vomiting ([2]; after the first two weeks of treatment): decrease
ability of the immature stem cell to differentiate into the different blood cell types ([2]; ozone dose dependent, 16 to 42 μg/ml generated ozone concentration): improved
total WBC counts ([2]; with the increase of the internal ozone concentration in the mammal): decrease
viability of malignant cells [3]: reduction in the viability
colony differentiation, dose response (K562 leukemic cell line; increasing concentrations of ozone): increased colony differentiation into normal cells
production of normal hematopoietic colonies (CFU-E, BFU-E, GM-CFU, CFU-GEMM) from K562 (K562 leukemic cell line; ozone 5, 10, 15, 25 μg/ml): stimulates the production of normal hematopoietic colonies
proliferation of leukemia derived colonies (K562 leukemic cell line; ozone 5, 10, 15, 25 μg/ml, total colonies): inhibits the proliferation
effects in the colonies from normal human PBMC [4]: no deleterious effects
effects on normal human leukocytes [5]: no significant deleterious effects
growth of cultured human cancerous cell lines [6]: selectively inhibit the growth
cytokine levels such as IL-1, IL-2 and IFN-γ [7]: increases cytokine levels
